Consider seven test systems from the supplement of paper PMC6045584.

± gives the standard deviation of the averaged measurements.

Compound in assay [1]: Cc1nc(Nc2n[nH]c3c2CN(C(=O)N[C@H](CN(C)C)c2ccccc2)C3(C)C)c2sccc2n1
As to the kind of experiment: surviving fraction relative to DMSO-only wells; higher = less growth inhibition. As to conditions: exposure time: 5 days. The gist of the method:
(§1)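 Viability values are CellTiter-Glo luminescence readings, given as surviving fraction against the median of DMSO-only wells. The readings were taken after 10 minutes at room temperature, following five days of continuous exposure to inhibitors at 0.5, 1, 5, 10, 50, 100, 500 and 1000 nM that began 24 hours after log-phase tumour cell lines were seeded at 250–500 cells per well in 384-well plates. Every line was screened three times and kept only if replicate Pearson r >0.7 and median Z' >0.3.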

Compound in the next assay: NC1(c2ccc(-c3nc4ccn5c(=O)[nH]nc5c4cc3-c3ccccc3)cc2)CCC1 [MK2206]
Described as above. The settings on record: exposure time: 5 days. The gist of the method:
as §1

For C33A CERVIX, the surviving fraction is 0.67 ± 0.035 in assay [1] (0.5 nM); 0.62 ± 0.016 in assay [1] (1 nM); 0.298 ± 0.049 in assay [1] (5 nM); 0.26 ± 0.024 in assay [1] (10 nM); 0.221 ± 0.011 in assay [1] (50 nM); 0.214 ± 0.024 in assay [1] (100 nM). Besides, the surviving fraction in assay [1] (500 nM) amounted to 0.146 ± 0.0049; in assay [1] (1000 nM), 0.0663 ± 0.009; with MK2206 (0.5 nM) it was 0.919 ± 0.03; with MK2206 (1 nM), 0.917 ± 0.026; with MK2206 (5 nM), 1.05 ± 0.085; in the assay with MK2206 (10 nM), 0.929 ± 0.029. The surviving fraction came out at 1.01 ± 0.063 in the assay with MK2206 (50 nM), 0.925 ± 0.058 in the assay with MK2206 (100 nM), 0.812 ± 0.084 in the assay with MK2206 (500 nM) and 0.817 ± 0.042 in the assay with MK2206 (1000 nM).
Consider CAL72 BONE, for which the surviving fraction in assay [1] (0.5 nM) came out at 1.04 ± 0.066; in assay [1] (1 nM), 0.993 ± 0.032; in assay [1] (5 nM), 0.691 ± 0.061; in assay [1] (10 nM), 0.556 ± 0.058; in assay [1] (50 nM), 0.435 ± 0.025; in assay [1] (100 nM), 0.399 ± 0.011. Further, the surviving fraction worked out at 0.194 ± 0.023 in assay [1] (500 nM); 0.0947 ± 0.0081 in assay [1] (1000 nM); 1.1 ± 0.024 with MK2206 (0.5 nM); 1.1 ± 0.11 with MK2206 (1 nM); 1.12 ± 0.06 with MK2206 (5 nM); 1.11 ± 0.1 with MK2206 (10 nM). Besides, the surviving fraction came out at 1.12 ± 0.019 in the assay with MK2206 (50 nM), 1.16 ± 0.096 with MK2206 (100 nM), 1.06 ± 0.087 in the assay with MK2206 (500 nM) and 1.05 ± 0.053 with MK2206 (1000 nM).
As for G292 BONE, the surviving fraction in assay [1] (0.5 nM) came out at 0.782 ± 0.028; in assay [1] (1 nM) it was 0.642 ± 0.029; in assay [1] (5 nM), 0.42 ± 0.0074; in assay [1] (10 nM) it was 0.376 ± 0.004; in assay [1] (50 nM), 0.324 ± 0.014; in assay [1] (100 nM), 0.287 ± 0.012. For the same test system, the surviving fraction in assay [1] (500 nM) was found to be 0.166 ± 0.0052; in assay [1] (1000 nM), 0.0753 ± 0.0032; with MK2206 (0.5 nM), 0.96 ± 0.031; with MK2206 (1 nM), 1.01 ± 0.06; with MK2206 (5 nM), 0.997 ± 0.033; with MK2206 (10 nM), 0.992 ± 0.031. In addition, the surviving fraction came to 0.893 ± 0.041 in the assay with MK2206 (50 nM), 0.833 ± 0.018 in the assay with MK2206 (100 nM), 0.748 ± 0.054 in the assay with MK2206 (500 nM) and 0.724 ± 0.026 in the assay with MK2206 (1000 nM).
As to HCC1395 BREAST, the surviving fraction in assay [1] (0.5 nM) is 0.927 ± 0.18; in assay [1] (1 nM) it was 0.984 ± 0.06; in assay [1] (5 nM), 1.06 ± 0.013; in assay [1] (10 nM) it was 1.11 ± 0.13; in assay [1] (50 nM), 0.964 ± 0.14; in assay [1] (100 nM), 1.16 ± 0.26. For the same test system, the surviving fraction in assay [1] (500 nM) was 0.964 ± 0.15; in assay [1] (1000 nM), 0.961 ± 0.16; in the assay with MK2206 (0.5 nM), 1.08 ± 0.18; in the assay with MK2206 (1 nM), 0.985 ± 0.056; with MK2206 (5 nM), 1.09 ± 0.16; with MK2206 (10 nM) it was 1.04 ± 0.19. The surviving fraction amounted to 0.934 ± 0.057 in the assay with MK2206 (50 nM), 1.1 ± 0.13 with MK2206 (100 nM), 0.89 ± 0.082 in the assay with MK2206 (500 nM) and 0.817 ± 0.15 with MK2206 (1000 nM).
On to HUO3N1 BONE, for which the surviving fraction was determined as 0.971 ± 0.018 in assay [1] (0.5 nM); 0.942 ± 0.034 in assay [1] (1 nM); 0.853 ± 0.011 in assay [1] (5 nM); 0.781 ± 0.024 in assay [1] (10 nM); 0.683 ± 0.015 in assay [1] (50 nM); 0.625 ± 0.038 in assay [1] (100 nM). The surviving fraction came out at 0.462 ± 0.029 in assay [1] (500 nM); 0.407 ± 0.0059 in assay [1] (1000 nM); 1.03 ± 0.072 with MK2206 (0.5 nM); 1.02 ± 0.045 in the assay with MK2206 (1 nM); 1.02 ± 0.052 with MK2206 (5 nM); 1.02 ± 0.051 in the assay with MK2206 (10 nM). The surviving fraction is 0.897 ± 0.044 in the assay with MK2206 (50 nM), 0.825 ± 0.036 in the assay with MK2206 (100 nM), 0.67 ± 0.023 in the assay with MK2206 (500 nM) and 0.64 ± 0.014 in the assay with MK2206 (1000 nM).
As to LNCAP PROSTATE, the surviving fraction stood at 0.773 ± 0.021 in assay [1] (0.5 nM); 0.632 ± 0.054 in assay [1] (1 nM); 0.215 ± 0.0067 in assay [1] (5 nM); 0.196 ± 0.019 in assay [1] (10 nM); 0.098 ± 0.017 in assay [1] (50 nM); 0.097 ± 0.012 in assay [1] (100 nM). In addition, the surviving fraction in assay [1] (500 nM) stood at 0.0357 ± 0.0032; in assay [1] (1000 nM) it was 0.0227 ± 0.0029; with MK2206 (0.5 nM), 0.974 ± 0.07; with MK2206 (1 nM) it was 0.936 ± 0.075; in the assay with MK2206 (5 nM), 0.87 ± 0.015; with MK2206 (10 nM) it was 0.839 ± 0.092. Besides, the surviving fraction in the assay with MK2206 (50 nM) stood at 0.529 ± 0.022; with MK2206 (100 nM), 0.398 ± 0.0075; in the assay with MK2206 (500 nM), 0.0787 ± 0.0097; with MK2206 (1000 nM), 0.071 ± 0.0017.
Take SCC003 HEADNECK: the surviving fraction in assay [1] (0.5 nM) was determined as 0.993 ± 0.094; in assay [1] (1 nM), 1.05 ± 0.094; in assay [1] (5 nM), 0.61 ± 0.043; in assay [1] (10 nM) it was 0.418 ± 0.022; in assay [1] (50 nM), 0.278 ± 0.029; in assay [1] (100 nM), 0.275 ± 0.028. The surviving fraction in assay [1] (500 nM) is 0.227 ± 0.021; in assay [1] (1000 nM), 0.183 ± 0.012; with MK2206 (0.5 nM), 1.09 ± 0.063; with MK2206 (1 nM) it was 1.08 ± 0.049; in the assay with MK2206 (5 nM), 1.07 ± 0.053; with MK2206 (10 nM) it was 1.07 ± 0.14. Besides, the surviving fraction with MK2206 (50 nM) is 1.03 ± 0.021; in the assay with MK2206 (100 nM) it was 1.09 ± 0.12; in the assay with MK2206 (500 nM) it was 0.884 ± 0.05; in the assay with MK2206 (1000 nM) it was 0.717 ± 0.068.
